Measurements taken from PubChem BioAssay AID330 (DTP/NCI, 2004).
Where “and” joins values, the source holds several entries; their conditions need not be identical. Identical values can stand only once. Inconclusive results and toxic doses are left out. How the source made its calls: active means survival T/C of 150% or more; inactive means T/C below 125% in these data.

System: P388 leukemia ip, CD2F1 mice, survival T/C
Test: NCI In Vivo Anticancer Drug Screen. Data for tumor model P388 Leukemia (intraperitoneal) in CD2F1 (CDF1) mice
Settings: endpoint: median survival time, higher = longer survival
How it was run: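 Mice carrying the transplanted tumor received test compound or vehicle. Survival was recorded in each group, and the value is the treated-group measurement divided by that of the vehicle-treated control group.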

[1] = dose: 50.0 mg/kg/injection, schedule: Q01DX009 (ip), vehicle: Klucel (hydroxypropylcellulose) (HPC)
[2] = dose: 100.0 mg/kg/injection, schedule: Q01DX009 (ip), vehicle: Klucel (hydroxypropylcellulose) (HPC)
[3] = dose: 200.0 mg/kg/injection, schedule: Q01DX009 (ip), vehicle: Klucel (hydroxypropylcellulose) (HPC)
[4] = dose: 60.0 mg/kg/injection, schedule: Q01DX005 (ip), vehicle: saline with Tween-80
[5] = dose: 120.0 mg/kg/injection, schedule: Q01DX005 (ip), vehicle: saline with Tween-80
[6] = dose: 240.0 mg/kg/injection, schedule: Q01DX005 (ip), vehicle: saline with Tween-80
[7] = dose: 60.0 mg/kg/injection, schedule: Q01DX005 (ip), vehicle: saline
[8] = dose: 120.0 mg/kg/injection, schedule: Q01DX005 (ip), vehicle: saline
[9] = dose: 240.0 mg/kg/injection, schedule: Q01DX005 (ip), vehicle: saline
[10] = dose: 50.0 mg/kg/injection, schedule: Q01DX005 (ip), vehicle: Klucel (hydroxypropylcellulose) (HPC)
[11] = dose: 100.0 mg/kg/injection, schedule: Q01DX005 (ip), vehicle: Klucel (hydroxypropylcellulose) (HPC)
[12] = dose: 200.0 mg/kg/injection, schedule: Q01DX005 (ip), vehicle: Klucel (hydroxypropylcellulose) (HPC)
[13] = dose: 50.0 mg/kg/injection, schedule: Q01DX005 (ip), vehicle: saline with Tween-80
[14] = dose: 200.0 mg/kg/injection, schedule: Q01DX005 (ip), vehicle: saline with Tween-80

Measured: T/C

O=C(/C=N/O)Nc1cccnc1
inactive: [1] 109 % of control | [2] 109 % of control | [3] 109 % of control

N#Cc1c2c(n3c1[nH]c(=O)c1ccccc13)CCCC2
inactive: [4] 105 % of control | [5] 100 % of control | [6] 99 % of control

O=S1(=O)CCN(C2CCS(=O)(=O)C2)CC1 (stereo not given)
inactive: [1] 90 % of control | [2] 99 % of control | [3] 90 % of control

CC12NCCC(CC(=O)N1)C2(C)C (stereo not given)
inactive: [7] 103 % of control | [8] 110 % of control | [9] 106 % of control

N/C(=N\S(=O)(=O)c1ccccc1)[N+](=O)[O-]
inactive: [10] 102 % of control | [11] 102 % of control | [12] 98 % of control

Cc1c(-c2ccccc2)noc1-n1nnc2ccccc2c1=O
inactive: [4] 100 % of control | [5] 100 % of control | [6] 89 % of control

c1ccc(C(=C2CCCCC2)c2ccccc2)cc1
inactive: [13] 100 % of control | dose: 100.0 mg/kg/injection, schedule: Q01DX005 (ip), vehicle: saline with Tween-80 100 % of control | [14] 98 % of control

NC(=O)/C(N=Nc1cc(S(=O)(=O)O)ccc1Cl)=N\Nc1cc(S(=O)(=O)O)ccc1Cl
inactive: [10] 100 % of control | [11] 91 % of control | [12] 94 % of control

N#CC(Cc1ccc(Cl)cc1)c1ccccc1 (stereo not given)
inactive: [1] 89 % of control | [2] 95 % of control | [3] 96 % of control

CC1(C)OCC(C2OC(C)(C)OC2/C=C2/CC(=O)NC2=O)O1 (stereo not given)
inactive: [1] 100 % of control and 107 % of control | [2] 100 % of control and 120 % of control | [3] 102 % of control and 122 % of control | dose: 400.0 mg/kg/injection, schedule: Q01DX009 (ip), vehicle: Klucel (hydroxypropylcellulose) (HPC) 116 % of control

CCCOP(=O)(CCl)OCCC
inactive: dose: 100.0 mg/kg/injection, schedule: Q01DX009 (ip), vehicle: saline 90 % of control | dose: 200.0 mg/kg/injection, schedule: Q01DX009 (ip), vehicle: saline 95 % of control | dose: 400.0 mg/kg/injection, schedule: Q01DX009 (ip), vehicle: saline 109 % of control

O=[N+]([O-])c1c(Cl)sc(Cl)c1[N+](=O)[O-]
inactive: dose: 1.56 mg/kg/injection, schedule: Q01DX009 (ip), vehicle: saline with Tween-80 105 % of control | dose: 3.12 mg/kg/injection, schedule: Q01DX009 (ip), vehicle: saline with Tween-80 104 % of control | dose: 6.25 mg/kg/injection, schedule: Q01DX009 (ip), vehicle: saline with Tween-80 87 % of control and 95 % of control | dose: 6.25 mg/kg/injection, schedule: Q04DX003 (ip), vehicle: saline sonified 110 % of control | dose: 12.5 mg/kg/injection, schedule: Q04DX003 (ip), vehicle: saline sonified 100 % of control | dose: 25.0 mg/kg/injection, schedule: Q04DX003 (ip), vehicle: saline sonified 100 % of control

CC1OC(=O)c2cc3ccccc3nc21 (stereo not given)
inactive: [4] 93 % of control | [5] 100 % of control | [6] 93 % of control

CC1=C(C)Cn2c(=O)c3cc4ccccc4cc3c(=O)n2C1
inactive: [1] 90 % of control | [2] 90 % of control

O=C1NC(=O)C(Cc2ccccc2)(Cc2ccccc2)S1
inactive: [4] 100 % of control | [5] 103 % of control | [6] 96 % of control

CCN(CC)CCOC(=O)C(OCC(C)C)(c1ccccc1)c1ccccc1
inactive: [10] 110 % of control | [11] 108 % of control

COC1=CCC(Cc2ccc[nH]2)=CC1
inactive: dose: 100.0 mg/kg/injection, schedule: Q01DX001 (ip), vehicle: distilled water + Tween-80 + alcohol 98 % of control | dose: 200.0 mg/kg/injection, schedule: Q01DX001 (ip), vehicle: distilled water + Tween-80 + alcohol 105 % of control | dose: 400.0 mg/kg/injection, schedule: Q01DX001 (ip), vehicle: distilled water + Tween-80 + alcohol 107 % of control

Oc1cc2c(cc1C(Nc1ccccn1)c1ccc3c(c1)OCO3)OCO2 (stereo not given)
inactive: [4] 108 % of control | [5] 108 % of control | [6] 95 % of control

Cc1ccc2nc(N3C(=O)CSC3=S)sc2c1
inactive: [1] 100 % of control | [2] 96 % of control

CC(C)[Si]1(C(C)C)N([Si](C)(C)F)[Si](C(C)C)(C(C)C)N1[Si](C)(C)F
inactive: [7] 97 % of control | [8] 87 % of control | [9] 100 % of control

COc1ccc(C(CC(=O)O)CC(=O)N(CCCl)CCCl)cc1C (stereo not given)
inactive: dose: 100.0 mg/kg/injection, schedule: Q04DX003 (ip), vehicle: saline 102 % of control | dose: 200.0 mg/kg/injection, schedule: Q04DX003 (ip), vehicle: saline 100 % of control | dose: 400.0 mg/kg/injection, schedule: Q04DX003 (ip), vehicle: saline 100 % of control

CN(C)c1ccc2nc3ccc(=O)cc-3sc2c1
inactive: dose: 12.5 mg/kg/injection, schedule: Q01DX009 (ip), vehicle: saline with Tween-80 100 % of control | dose: 25.0 mg/kg/injection, schedule: Q01DX009 (ip), vehicle: saline with Tween-80 108 % of control | dose: 50.0 mg/kg/injection, schedule: Q01DX009 (ip), vehicle: saline with Tween-80 108 % of control | dose: 100.0 mg/kg/injection, schedule: Q01DX009 (ip), vehicle: saline with Tween-80 120 % of control and 122 % of control

O=NN(CCCl)C(=O)OCC(Cl)(Cl)Cl
inactive: dose: 3.12 mg/kg/injection, schedule: Q01DX001 (ip), vehicle: saline with Tween-80 104 % of control | dose: 6.25 mg/kg/injection, schedule: Q01DX001 (ip), vehicle: saline with Tween-80 101 % of control | dose: 12.5 mg/kg/injection, schedule: Q01DX001 (ip), vehicle: saline with Tween-80 113 % of control | dose: 25.0 mg/kg/injection, schedule: Q01DX001 (ip), vehicle: saline with Tween-80 113 % of control and 117 % of control and 119 % of control | dose: 50.0 mg/kg/injection, schedule: Q01DX001 (ip), vehicle: saline with Tween-80 105 % of control and 120 % of control and 123 % of control | dose: 100.0 mg/kg/injection, schedule: Q01DX001 (ip), vehicle: saline with Tween-80 88 % of control

CCN(CC)CCNc1cc(Nc2ccc([N+](=O)[O-])cc2)ccc1OC
inactive: dose: 12.5 mg/kg/injection, schedule: Q01DX005 (ip), vehicle: saline with Tween-80 108 % of control | dose: 25.0 mg/kg/injection, schedule: Q01DX005 (ip), vehicle: saline with Tween-80 106 % of control | [13] 99 % of control | [14] 87 % of control

COc1ccc2c(c1O)Oc1c(O)ccc3c1C(C2)N(C)CC3 (stereo not given)
inactive: dose: 2.5 mg/kg/injection, schedule: Q01DX005 (ip), vehicle: Klucel (hydroxypropylcellulose) (HPC) 107 % of control | dose: 5.0 mg/kg/injection, schedule: Q01DX005 (ip), vehicle: Klucel (hydroxypropylcellulose) (HPC) 100 % of control | dose: 10.0 mg/kg/injection, schedule: Q01DX005 (ip), vehicle: Klucel (hydroxypropylcellulose) (HPC) 102 % of control | dose: 20.0 mg/kg/injection, schedule: Q01DX005 (ip), vehicle: Klucel (hydroxypropylcellulose) (HPC) 100 % of control

CCOC(=O)Nc1cc(Cl)c([N+](=O)[O-])c([N+](=O)[O-])n1
inactive: dose: 100.0 mg/kg/injection, schedule: Q04DX002 (ip), vehicle: saline 101 % of control | dose: 200.0 mg/kg/injection, schedule: Q04DX002 (ip), vehicle: saline 103 % of control | dose: 400.0 mg/kg/injection, schedule: Q04DX002 (ip), vehicle: saline 110 % of control
